Patent US9296741B2, “Bromodomain inhibitors” (priority 2012, dated 2016)
pEC50, pKi: −log10 of the molar value.

What was measured:
[1] = molecular target: human BRD4 second bromodomain (BDII_E352-M457) (Homo sapiens (Human), UniProt O60885); assay: TR-FRET bromodomain binding assay, BRD4 second bromodomain
[2] = molecular target: human BRD4 first bromodomain (BDI_K57-E168) (Homo sapiens (Human), UniProt O60885); assay: TR-FRET bromodomain binding assay, BRD4 first bromodomain
[3] = Mouse liver microsome stability assay; assay type: in vitro ADME; details: male, CD1, mouse, microsomes, pH 7.4
[4] = Human liver microsome stability assay; assay type: in vitro ADME; details: both sexes, human, microsomes, pH 7.4
[5] = system: breast cancer cell line MX-1; assay: MX-1 cell line proliferation assay; assay type: cell-based, human; details: Homo sapiens, MX1, 72 h; MX-1 cells, 3-day proliferation, Cell Titer Glo; read-out: Cellular proliferation: EC50
[6] = Rat liver microsome stability assay; assay type: in vitro ADME; details: rat liver microsomes (male Sprague-Dawley), 0.5 μM test compound, 0.25 mg/mL microsomal protein, pH 7.4, 37° C.; read-out: Stability in rat liver microsomes (t1/2 in minutes)

| SMILES | pKi [1] | pKi [2] | half-life at 0.5 μM [3] | half-life at 0.5 μM [4] | pEC50 [5] | half-life at 0.5 μM [6] |
| --- | --- | --- | --- | --- | --- | --- |
| CC(COC(C)(C)C)Oc1ccc(S(C)(=O)=O)cc1-c1cn(C)c(=O)c2[nH]ccc12 (stereo not drawn) [Example 229, 4-{2-[(1-tert-butoxypropan-2-yl)oxy]-5-(methylsulfonyl)phenyl}-6-methyl-1,6-dihydro-7H-pyrrolo[2,3-c]pyridin-7-one] | 7.21 | 7.46 | 9 min | 25 min | 6.54 | 33 min |
| Cn1cc(-c2cc(S(C)(=O)=O)ccc2OCC2C[C@@H]3CC[C@H]2C3)c2cc[nH]c2c1=O (stereo partly drawn) [Example 230, 4-{2-[(1S,4R)-bicyclo[2.2.1]hept-2-ylmethoxy]-5-(methylsulfonyl)phenyl}-6-methyl-1,6-dihydro-7H-pyrrolo[2,3-c]pyridin-7-one] | 8.82 | 8.59 | 7 min | 6 min | 7.63 | 8 min |
| Cn1cc(-c2cc(NS(=O)(=O)C3CC3)ccc2Oc2ccc(F)cc2F)c2cc[nH]c2c1=O [Example 235, N-[4-(2,4-difluorophenoxy)-3-(6-methyl-7-oxo-6,7-dihydro-1H-pyrrolo[2,3-c]pyridin-4-yl)phenyl]cyclopropanesulfonamide] | 8.15 | 7.76 | 22 min | 81 min | 7.18 | 49 min |
| COCCS(=O)(=O)Nc1ccc(Oc2ccc(F)cc2F)c(-c2cn(C)c(=O)c3[nH]ccc23)c1 [Example 236, N-[4-(2,4-difluorophenoxy)-3-(6-methyl-7-oxo-6,7-dihydro-1H-pyrrolo[2,3-c]pyridin-4-yl)phenyl]-2-methoxyethanesulfonamide] | 8.29 | 7.84 | 15 min | 33 min | 7.60 | 32 min |
| Cn1cc(-c2cc(S(C)(=O)=O)ccc2OC2C3CC4CC(C3)CC2C4)c2cc[nH]c2c1=O (stereo not drawn) [Example 237, 6-methyl-4-{5-(methylsulfonyl)-2-[tricyclo[3.3.1.1^3,7]dec-2-yloxy]phenyl}-1,6-dihydro-7H-pyrrolo[2,3-c]pyridin-7-one] | 8.46 | 8.52 | 2 min | 3 min | 7.46 | 7 min |
| Cn1cc(-c2cc(S(=O)(=O)C(F)(F)F)ccc2OCC2CC2)c2cc[nH]c2c1=O [Example 243, 4-{2-(cyclopropylmethoxy)-5-[(trifluoromethyl)sulfonyl]phenyl}-6-methyl-1,6-dihydro-7H-pyrrolo[2,3-c]pyridin-7-one] | 7.42 | 7.94 | 109 min | > 120 min | 6.60 | 20 min |
| Cn1cc(-c2cc(S(=O)(=O)C(F)(F)F)ccc2NCC2CC2)c2cc[nH]c2c1=O [Example 244, 4-{2-[(cyclopropylmethyl)amino]-5-[(trifluoromethyl)sulfonyl]phenyl}-6-methyl-1,6-dihydro-7H-pyrrolo[2,3-c]pyridin-7-one] | 7.13 | 7.63 | 87 min | 53 min | 6.60 | 6 min |
| CCS(=O)(=O)Nc1ccc(OCC2CC2)c(-c2cn(C)c(=O)c3[nH]ccc23)c1C [Example 251, N-[4-(cyclopropylmethoxy)-2-methyl-3-(6-methyl-7-oxo-6,7-dihydro-1H-pyrrolo[2,3-c]pyridin-4-yl)phenyl]ethanesulfonamide] | 6.77 | 7.20 | 44 min | 118 min | 6.24 | 23 min |
| Cn1cc(-c2cc(S(C)(=O)=O)ccc2Oc2ccc(F)cc2F)c2cc(C(N)=O)[nH]c2c1=O [Example 252, 4-[2-(2,4-difluorophenoxy)-5-(methylsulfonyl)phenyl]-6-methyl-7-oxo-6,7-dihydro-1H-pyrrolo[2,3-c]pyridine-2-carboxamide] | 8.77 | 8.00 | > 120 min | 68 min | 6.61 | > 120 min |
| CCNC(=O)c1cc2c(-c3cc(S(C)(=O)=O)ccc3Oc3ccc(F)cc3F)cn(C)c(=O)c2[nH]1 [Example 253, 4-[2-(2,4-difluorophenoxy)-5-(methylsulfonyl)phenyl]-N-ethyl-6-methyl-7-oxo-6,7-dihydro-1 H-pyrrolo[2,3-c]pyridine-2-carboxamide] | 8.92 | 7.69 | 90 min | 72 min | 6.84 | 110 min |
| Cn1cc(-c2cc(S(C)(=O)=O)ccc2Oc2ccc(F)cc2F)c2cc(C(=O)NCC(F)(F)F)[nH]c2c1=O [Example 254, 4-[2-(2,4-difluorophenoxy)-5-(methylsulfonyl)phenyl]-6-methyl-7-oxo-N-(2,2,2-trifluoroethyl)-6,7-dihydro-1H-pyrrolo[2,3-c]pyridine-2-carboxamide] | 8.06 | 7.10 | 91 min | 74 min | 7.12 | > 120 min |
| Cn1cc(-c2cc(S(C)(=O)=O)ccc2Oc2ccc(F)cc2F)c2cc(C(=O)N3CCOCC3)[nH]c2c1=O [Example 255, 4-[2-(2,4-difluorophenoxy)-5-(methylsulfonyl)phenyl]-6-methyl-2-(morpholin-4-ylcarbonyl)-1,6-dihydro-7H-pyrrolo[2,3-c]pyridin-7-one] | 6.81 | 7.98 | > 120 min | 70 min | 6.58 | > 120 min |
| CN1CCN(C(=O)c2cc3c(-c4cc(S(C)(=O)=O)ccc4Oc4ccc(F)cc4F)cn(C)c(=O)c3[nH]2)CC1 [Example 256, 4-[2-(2,4-difluorophenoxy)-5-(methylsulfonyl)phenyl]-6-methyl-2-[(4-methylpiperazin-1-yl)carbonyl]-1,6-dihydro-7H-pyrrolo[2,3-c]pyridin-7-one] | 7.08 | 8.21 | 71 min | 58 min | 6.39 | 58 min |
| Cn1cc(-c2cc(S(C)(=O)=O)ccc2Oc2ccc(F)cc2F)c2cc(C(=O)Nc3nccs3)[nH]c2c1=O [Example 257, 4-[2-(2,4-difluorophenoxy)-5-(methylsulfonyl)phenyl]-6-methyl-7-oxo-N-(1,3-thiazol-2-yl)-6,7-dihydro-1H-pyrrolo[2,3-c]pyridine-2-carboxamide] | 8.52 | 7.23 | 20.3 min | 18 min | 6.44 | 56 min |
| CCOC(=O)N1CCC(Oc2ccc(S(C)(=O)=O)cc2-c2cn(C)c(=O)c3[nH]ccc23)CC1 [Example 258, ethyl 4-[2-(6-methyl-7-oxo-6,7-dihydro-1H-pyrrolo[2,3-c]pyridin-4-yl)-4-(methylsulfonyl)phenoxy]piperidine-1-carboxylate] | 7.91 | 8.23 | 69.8 min | 42 min | 7.12 | 91 min |
| CC(C)S(=O)(=O)c1ccc(NCC2CC2)c(-c2cn(C)c(=O)c3[nH]ccc23)c1 [Example 261, 4-{2-[(cyclopropylmethyl)amino]-5-(propan-2-ylsulfonyl)phenyl}-6-methyl-1,6-dihydro-7H-pyrrolo[2,3-c]pyridin-7-one] | 8.80 | 8.82 | 16 min | 25 min | 8.14 | 5 min |
| CN(C)C(=O)c1cc2c(-c3cc(S(C)(=O)=O)ccc3Oc3ccc(F)cc3F)cn(C)c(=O)c2[nH]1 [Example 269, 4-[2-(2,4-difluorophenoxy)-5-(methylsulfonyl)phenyl]-N,N,6-trimethyl-7-oxo-6,7-dihydro-1 H-pyrrolo[2,3-c]pyridine-2-carboxamide] | 7.24 | 7.91 | 58 min | 79 min | 6.48 | 83 min |
| CC(C)S(=O)(=O)c1ccc(Oc2ccc(F)cc2F)c(-c2cn(C)c(=O)c3[nH]ccc23)c1 [Example 271, 4-[2-(2,4-difluorophenoxy)-5-(propan-2-ylsulfonyl)phenyl]-6-methyl-1,6-dihydro-7H-pyrrolo[2,3-c]pyridin-7-one] | 8.72 | 8.54 | 11 min | 23 min | 7.67 | 12 min |
| Cn1cc(-c2cc(S(C)(=O)=O)ccc2Oc2ccc(F)cc2F)c2cc(CN3CCOCC3)[nH]c2c1=O [Example 280, 4-[2-(2,4-difluorophenoxy)-5-(methylsulfonyl)phenyl]-6-methyl-2-(morpholin-4-ylmethyl)-1,6-dihydro-7H-pyrrolo[2,3-c]pyridin-7-one] | 7.04 | 7.72 | 36 min | 17 min | 6.53 | 84 min |
| CN1CCN(Cc2cc3c(-c4cc(S(C)(=O)=O)ccc4Oc4ccc(F)cc4F)cn(C)c(=O)c3[nH]2)CC1 [Example 281, 4-[2-(2,4-difluorophenoxy)-5-(methylsulfonyl)phenyl]-6-methyl-2-[(4-methylpiperazin-1-yl)methyl]-1,6-dihydro-7H-pyrrolo[2,3-c]pyridin-7-one] | 6.97 | 8.74 | 116 min | 25 min | 6.72 | 119 min |
